Source: patent US5589510A, “Method for inhibiting retroviral infection by administering a naphthalenesulfonic acid compound” (priority 1995, dated 1996)
Like-named read-outs stand apart in the source and are kept apart here.

What was measured:
[1] = LD50, intravenous, mice; format: in vivo; conditions: mouse, in vivo, female mice, mortalities within 1 week
Method: The test material was administered intravenously to 5 female mice in five increasing doses. Mortalities were recorded within 1 week, and the LD50 was determined with the aid of statistical calculations.

[2] = tested on: TA98, TA1535, TA1537, TA1538, TA100 and W2P2uvr; experiment: Ames Test (in the presence of S9); format: cell-based, Salmonella typhimurium; conditions: for Ames Test, specific mutagenic activity: the higher the value, the higher the mutagenicity
Source text: Six Salmonella typhimuriumstrai strains, TA98, TA1535, TA1537, TA1538, TA100 and W2P2uvr were used in this experiment.

[3] = tested on: HIV-1 RF; experiment: Antiviral assay, Experimental Protocol I (compound added after infection); format: cell-based; conditions: Human immunodeficiency virus 1, 240 h, p24 ELISA, read-out: % Inhibition (after day 10); for inhibition at 0.6 µg/mL: 0.6 μg/ml; for inhibition at 1.25 µg/mL: 1.25 μg/ml; for inhibition at 2.5 µg/mL: 2.5 μg/ml; for inhibition at 5 µg/mL: 5 μg/ml
Method: HIV-1 infectivity studies were conducted in CEM, H9, MT2 cells and peripheral blood mononuclear cells (PBMC). CEM, H9 and MT2 were grown in RPMI1640 medium, 10% heat-inactivated fetal bovine serum (FBS). PBMCs were stimulated with 4 μg/ml PHA for 48 hours in RPMI1640, 10% FBS before HIV-1 infection. After HIV-1 infection, PBMCs were maintained in RPMI 1640, 10% FBS and 10 10 units/ml IL-2. The major HIV-1 isolates used were MN, IIIB, SF2, AZT-sensitive A018 and AZT-resistant A018 provided by NIH AIDS research and reference reagent program. Two major antiviral assays were developed to determine the antiviral activities of the compounds of this invention (as inhibitors).
I. The cells were infected with HIV-1 RF or IIIB at an infectivity multiplicity (moi) of 0.001 in the absence of a compound of this invention for one hour. HIV-1 infected cells were washed once with PBS, resuspended in RPMI1640, 10% FBS medium and distributed in 24-well culture dishes (5×10^5 cells per well) in the presence of a compound of this invention as inhibitor. […]

In the case of `COc1cc(N=Nc2c(S(=O)(=O)O)cc3cc(S(=O)(=O)O)cc(NC(=O)c4cccc(Cl)c4Cl)c3c2O)c(OC)cc1N=Nc1c(S(=O)(=O)O)cc2cc(S(=O)(=O)O)cc(NC(=O)c3cccc(Cl)c3Cl)c2c1O` [Compound 8], the LD50 at 168 h [1] is reported as 160 mg/kg, the “Ames Test result” value [2] is reported as “Negative” and the inhibition at 0.6 µg/mL ([3]; 10% FCS) is reported as 87%. For the same compound, the inhibition at 1.25 µg/mL ([3]; 10% FCS) was 99%, the inhibition at 2.5 µg/mL ([3]; 10% FCS) was 99% and the inhibition at 5 µg/mL ([3]; 10% FCS) was 99%. For the same compound, the inhibition at 1.25 µg/mL ([3]; 50% Human Serum) was 0%, the inhibition at 2.5 µg/mL ([3]; 50% Human Serum) was 0% and the inhibition at 5 µg/mL ([3]; 50% Human Serum) was 95%.

For `COc1cc(N=Nc2c(S(=O)(=O)O)cc3cc(S(=O)(=O)O)cc(NC(=O)c4ccc(C)cc4)c3c2O)c(OC)cc1N=Nc1c(S(=O)(=O)O)cc2cc(S(=O)(=O)O)cc(NC(=O)c3ccccc3)c2c1O` [Compound 23], the LD50 at 168 h [1] was 130 mg/kg and the “Ames Test result” value [2] was “Negative”.

For `COc1cc(N=Nc2c(S(=O)(=O)O)cc3cc(S(=O)(=O)O)cc(NC(=O)c4ccccc4)c3c2O)c(OC)cc1N=Nc1c(S(=O)(=O)O)cc2cc(S(=O)(=O)O)cc(NC(=O)Nc3ccc(F)cc3)c2c1O` [Compound 24], the LD50 at 168 h [1] was 140 mg/kg and the “Ames Test result” value [2] was “Negative”.

In the case of `COc1cc(N=Nc2c(S(=O)(=O)O)cc3cc(S(=O)(=O)O)cc(NC(=O)c4cccc(Cl)c4Cl)c3c2O)c(OC)cc1N=Nc1c(S(=O)(=O)O)cc2cc(S(=O)(=O)O)cc(NC(=O)c3cc(Cl)ccc3Cl)c2c1O` [Compound 9], the LD50 at 168 h [1] is reported as 150 mg/kg, the “Ames Test result” value [2] is reported as “Negative” and the inhibition at 0.6 µg/mL ([3]; 10% FCS) is reported as 63%. For the same compound, the inhibition at 1.25 µg/mL ([3]; 10% FCS) was 99%, the inhibition at 2.5 µg/mL ([3]; 10% FCS) was 99% and the inhibition at 5 µg/mL ([3]; 10% FCS) was 100%. The inhibition at 0.6 µg/mL ([3]; 50% Human Serum) was 0%, the inhibition at 1.25 µg/mL ([3]; 50% Human Serum) was 0% and the inhibition at 2.5 µg/mL ([3]; 50% Human Serum) was 16%. For the same compound, the inhibition at 5 µg/mL ([3]; 50% Human Serum) was 90%.

With `COc1cc(N=Nc2c(S(=O)(=O)O)cc3cc(S(=O)(=O)O)cc(NC(=O)c4cccc(Cl)c4Cl)c3c2O)c(OC)cc1N=Nc1c(S(=O)(=O)O)cc2cc(S(=O)(=O)O)cc(NC(=O)Cc3ccccc3)c2c1O` [Compound 2] the LD50 at 168 h [1] was 150 mg/kg, the “Ames Test result” value [2] was “Negative” and the inhibition at 1.25 µg/mL ([3]; 10% FCS) was 60%. It also gave an inhibition at 2.5 µg/mL ([3]; 10% FCS) of 73% and an inhibition at 5 µg/mL ([3]; 10% FCS) of 98%.

With `COc1cc(N=Nc2c(O)ccc3ccc(S(=O)(=O)O)cc23)c(OC)cc1N=Nc1c(S(=O)(=O)O)cc2cc(S(=O)(=O)O)cc(NC(=O)COc3ccccc3)c2c1O` [Compound 41] the “Ames Test result” value [2] was “Negative”.

For `COc1cc(N=Nc2c(O)ccc3ccc(S(=O)(=O)O)cc23)c(OC)cc1N=Nc1c(S(=O)(=O)O)cc2cc(S(=O)(=O)O)cc(NC(=O)c3cccc(C(F)(F)F)c3)c2c1O` [Compound 36], the “Ames Test result” value [2] was “Negative”.

In the case of `COc1cc(N=Nc2c(S(=O)(=O)O)cc3cc(S(=O)(=O)O)cc(NC(=O)c4ccc(C#N)cc4)c3c2O)c(OC)cc1N=Nc1c(S(=O)(=O)O)cc2cc(S(=O)(=O)O)cc(NC(=O)c3ccccc3)c2c1O` [Compound 26], the LD50 at 168 h [1] is reported as 150 mg/kg and the “Ames Test result” value [2] is reported as “Negative”.

With `O=C(Nc1cc(S(=O)(=O)O)cc2cc(S(=O)(=O)O)c(N=Nc3ccc(N=Nc4c(S(=O)(=O)O)cc5cc(S(=O)(=O)O)cc(NC(=O)c6cccc(Cl)c6Cl)c5c4O)cc3)c(O)c12)c1ccc(Cl)cc1Cl` [Compound 29] the “Ames Test result” value [2] was “Negative”.

With `COc1cc(N=Nc2c(S(=O)(=O)O)cc3cc(S(=O)(=O)O)cc(NC(=O)c4cccc5ccccc45)c3c2O)c(OC)cc1N=Nc1c(S(=O)(=O)O)cc2cc(S(=O)(=O)O)cc(NC(=O)c3ccc(C(F)(F)F)cc3)c2c1O` [Compound 19] the LD50 at 168 h [1] was 140 mg/kg and the “Ames Test result” value [2] was “Negative”.

In the case of `COc1cc(N=Nc2c(S(=O)(=O)O)cc3cc(S(=O)(=O)O)cc(NC(=O)c4cccc([N+](=O)[O-])c4)c3c2O)c(OC)cc1N=Nc1c(S(=O)(=O)O)cc2cc(S(=O)(=O)O)cc(NC(=O)c3ccccc3)c2c1O` [Compound 22], the LD50 at 168 h [1] is reported as 140 mg/kg, the “Ames Test result” value [2] is reported as “Positive” and the “Ames Test, specific mutagenic activity” value [2] is reported as 0.4 colony no/μg.

For `O=C(Nc1cc(S(=O)(=O)O)cc2cc(S(=O)(=O)O)c(N=Nc3ccc(N=Nc4c(S(=O)(=O)O)cc5cc(S(=O)(=O)O)cc(NC(=O)c6cccc(Cl)c6Cl)c5c4O)c(Cl)c3)c(O)c12)c1ccc(Cl)cc1Cl` [Compound 30], the “Ames Test result” value [2] was “Negative”.

For `COc1cc(N=Nc2c(O)ccc3ccc(S(=O)(=O)O)cc23)c(OC)cc1N=Nc1c(S(=O)(=O)O)cc2cc(S(=O)(=O)O)cc(NC(=O)Cc3cccc4ccccc34)c2c1O` [Compound 42], the “Ames Test result” value [2] was “Negative”, the inhibition at 1.25 µg/mL ([3]; 10% FCS) was 28% and the inhibition at 2.5 µg/mL ([3]; 10% FCS) was 99%. The inhibition at 5 µg/mL ([3]; 10% FCS) was 99%.

With `COc1cc(N=Nc2c(O)ccc3ccc(S(=O)(=O)O)cc23)c(OC)cc1N=Nc1c(S(=O)(=O)O)cc2cc(S(=O)(=O)O)cc(NC(=O)c3cccnc3)c2c1O` [Compound 40] the “Ames Test result” value [2] was “Negative”.

With `O=C(Nc1cc(S(=O)(=O)O)cc2cc(S(=O)(=O)O)c(N=Nc3ccc(N=Nc4c(O)ccc5ccc(S(=O)(=O)O)cc45)cc3Cl)c(O)c12)c1ccccc1` [Compound 45] the inhibition at 1.25 µg/mL ([3]; 10% FCS) was 92%, the inhibition at 2.5 µg/mL ([3]; 10% FCS) was 99% and the inhibition at 5 µg/mL ([3]; 10% FCS) was 99%.

In the case of `COc1cc(N=Nc2c(S(=O)(=O)O)cc3cc(S(=O)(=O)O)cc(NC(=O)c4ccccc4OC)c3c2O)c(OC)cc1N=Nc1c(S(=O)(=O)O)cc2cc(S(=O)(=O)O)cc(NC(=O)c3ccccc3)c2c1O` [Compound 25], the LD50 at 168 h [1] is reported as 160 mg/kg and the “Ames Test result” value [2] is reported as “Negative”.

With `COc1cc(N=Nc2c(O)ccc3ccc(S(=O)(=O)O)cc23)c(OC)cc1N=Nc1c(S(=O)(=O)O)cc2cc(S(=O)(=O)O)cc(NC(=O)c3ccc4ccccc4c3)c2c1O` [Compound 39] the “Ames Test result” value [2] was “Negative”.

In the case of `COc1cc(N=Nc2c(O)ccc3ccc(S(=O)(=O)O)cc23)c(OC)cc1N=Nc1c(S(=O)(=O)O)cc2cc(S(=O)(=O)O)cc(NC(=O)c3ccc(C#N)cc3)c2c1O` [Compound 37], the “Ames Test result” value [2] is reported as “Negative”.

In the case of `COc1cc(N=Nc2c(O)ccc3ccc(S(=O)(=O)O)cc23)c(OC)cc1N=Nc1c(S(=O)(=O)O)cc2cc(S(=O)(=O)O)cc(NC(=O)c3cccc4ccccc34)c2c1O` [Compound 38], the “Ames Test result” value [2] is reported as “Negative”, the inhibition at 1.25 µg/mL ([3]; 10% FCS) is reported as 99% and the inhibition at 2.5 µg/mL ([3]; 10% FCS) is reported as 99%. The inhibition at 5 µg/mL ([3]; 10% FCS) was 100%.

For `COc1cc(N=Nc2c(O)ccc3ccc(S(=O)(=O)O)cc23)c(OC)cc1N=Nc1c(S(=O)(=O)O)cc2cc(S(=O)(=O)O)cc(NC(=O)c3ccc(Cl)cc3Cl)c2c1O` [Compound 34], the “Ames Test result” value [2] was “Negative”.

In the case of `Cc1cc(N=Nc2c(S(=O)(=O)O)cc3cc(S(=O)(=O)O)cc(NC(=O)c4cccc(Cl)c4Cl)c3c2O)c(C)cc1N=Nc1c(S(=O)(=O)O)cc2cc(S(=O)(=O)O)cc(NC(=O)c3ccc(Cl)cc3Cl)c2c1O` [Compound 31], the “Ames Test result” value [2] is reported as “Negative”, the inhibition at 1.25 µg/mL ([3]; 10% FCS) is reported as 0% and the inhibition at 2.5 µg/mL ([3]; 10% FCS) is reported as 88%. The inhibition at 5 µg/mL ([3]; 10% FCS) was 100%.

In the case of `COc1cc(N=Nc2c(S(=O)(=O)O)cc3cc(S(=O)(=O)O)cc(NC(=O)c4ccc(Cl)cc4Cl)c3c2O)c(OC)cc1N=Nc1c(S(=O)(=O)O)cc2cc(S(=O)(=O)O)cc(NC(=O)Cc3cccc4ccccc34)c2c1O` [Compound 20], the LD50 at 168 h [1] is reported as 150 mg/kg, the “Ames Test result” value [2] is reported as “Positive” and the “Ames Test, specific mutagenic activity” value [2] is reported as 0.08 colony no/μg.

With `CCC(C)(C)c1ccc(OCC(=O)Nc2cc(S(=O)(=O)O)cc3cc(S(=O)(=O)O)c(N=Nc4cc(OC)c(N=Nc5c(O)ccc6ccc(S(=O)(=O)O)cc56)cc4OC)c(O)c23)c(C(C)(C)CC)c1` [Compound 43] the “Ames Test result” value [2] was “Negative”, the inhibition at 1.25 µg/mL ([3]; 10% FCS) was 0% and the inhibition at 2.5 µg/mL ([3]; 10% FCS) was 0%. It also gave an inhibition at 5 µg/mL ([3]; 10% FCS) of 99%.
